Where two headings read alike, the source gives them in different places. Where no end group is shown, it is not given here.

Common to all, as to format: cell-based
Data set [1] deals with LPS-stimulated mouse peritoneal macrophages. The procedure: (§1) ^aAnti-inflammatory interactions between peptide 1 and peptide 2 of AeaeCec peptides were determined by the chequerboard assay as described previously. First, 2-fold serial dilutions of peptides were prepared. Next, peptides were dissolved in PBS and added to mouse macrophages to final concentrations of 5, 2.5, 1.25, 0.625, 0.3125 µMin each well of a 96-well plate in the presence of E. coli LPS (100 ng/ml). The same volume of PBS served as a control. After incubation at 37˚Cfor 24 h, the culture supernatants of mouse macrophages were detected for the NO production (nitrite accumulation) using Griess reagent. Half maximal inhibitory concentrations (IC50) were calculated. The fractional inhibitory concentration index (FICI) was calculated for each combination using this equation: FICI = FICA+ FICB, where FICA= IC50 of peptide A in combination/IC50 of peptide A alone, and FICB= IC50 of peptide B in combination/IC50 of peptide B alone. FICI of ≤ 0.5 was interpreted as synergy, 0.5 < FICI ≤ 1.0 as additive, 1.0 < FICI ≤ 4.0 as indifferent, and FICI > 4.0 as antagonism. Data were calculated from three independent experiments and presented as mean ± SEM.
as §1, with “2” for “2 of AeaeCec peptides”, “µM in” for “µMin”, “supernatant” for “supernatants”, “assayed” for “detected”, “for” for “for the”, “≤1.0” for “≤ 1.0”

In data set [2] the test system is mouse peritoneal macrophages. Nature of the data set: CCK-8 cytotoxic assay. The settings on record: 24 h. The procedure: Cell Counting Kit-8 (CCK-8) was used to detect the cytotoxicity of AeaeCec1-5 against mammalian cells. In brief, mouse peritoneal macrophages, human PBMCs and Vero E6 cells were seeded in 96-well plates (2×10^4 cells/well, 100 μl/well). After cells adhered to culture plate, the culture medium was transferred with a two-fold dilution series of AeaeCec1-5 beginning with 50 μM (100 μl) prepared in serum-free RPMI-1640 for mouse macrophages and human PBMCs, and serum-free DMEM for Vero E6 cells. After incubation at 37 °C for 24 h, CCK-8 solution (10 μl/well) was added for an additional 4 h incubation. The absorbance at 450 nm was recorded on a microplate reader (Epoch Etock, BioTek, Vermont, USA).
Supplementary file 13071_2018_3000_MOESM2_ESM.tif: Additional file 2: Figure S1. Cytotoxicity of Ae. aegypti cecropins against mammalian cells. a Mice peritoneal macrophages, human PBMCs and Vero E6 cells were exposed to 50 μM AeaeCec1-5, respectively. b Mice peritoneal macrophages and human PBMCs were exposed to series of two-fold AeaeCec5 dilutions ranging from 3.125 to 50 μM, respectively. (TIF 161 kb)
For orientation: Formazan colour is commonly taken as a measure of viable cells.

The test system of data set [3] is E. coli. The text has this:
MIC: minimal inhibitory concentration. These concentrations represent mean values of three independent experiments performed in duplicates. CI: clinically isolated strain.

Where [4] appears, read: IC50 in combination with AeaeCec1 / IC50 alone.
Setting [5] is: IC50 in combination with AeaeCec2 / IC50 alone.
Setting [6] is: IC50 in combination with AeaeCec3 / IC50 alone.
[7] abbreviates: IC50 in combination with AeaeCec5(2W→2A) / IC50 alone.
The mark [8] stands for this setting: IC50 in combination with AeaeCec5 / IC50 alone.
Setting [9] is: IC50 in combination with AeaeCec4 / IC50 alone.

Regarding “GGLKKLGKKLEGAGKRVFKASEKALPVVVGIKAI-NH2 [AeaeCec4]”, the FIC is listed as 0.50 in data set [1] (setting [4]); 0.49 in data set [1] (setting [5]); 0.52 in data set [1] (setting [6]); 0.53 in data set [1] (setting [7]); 0.43 in data set [1] (setting [8]).
For the substance “RWKFGKKLEKVGKNVFNAAKKALPVVAGYKAL-NH2 [AeaeCec5]”, the cytotoxicity was 9.5% in data set [2] (12.5 μM) and “no cytotoxicity” in data set [2] (concentration below 6.25 μM). In data set [2] (50 μM), the cell death was found to be 28.9%. For the same substance, the FIC in data set [1] (setting [4]) is 0.44; in data set [1] (setting [5]), 0.42; in data set [1] (setting [6]), 0.47; in data set [1] (setting [9]), 0.46. This substance showed a minimal inhibitory concentrations in data set [3] of 1.17 to 2.34 µg/mL.
On to “GGLKKLGKKLEGVGKRVFKASEKALPVVTGYKAI-NH2 [AeaeCec3]”, for which the FIC in data set [1] (setting [4]) worked out at 0.49; in data set [1] (setting [5]) it was 0.52; in data set [1] (setting [9]), 0.50; in data set [1] (setting [7]) it was 0.51; in data set [1] (setting [8]) it was 0.47.
For the substance “GGLKKLGKKLEGAGKRVFNAAEKALPVVAGAKALRK [AeaeCec1]”, the FIC in data set [1] (setting [5]) stood at 0.52; in data set [1] (setting [6]), 0.53; in data set [1] (setting [9]), 0.54; in data set [1] (setting [7]), 0.47; in data set [1] (setting [8]), 0.42.
Regarding “GGLKKLGKKLEGAGKRVFNAAEKALPVVAGAKAL-NH2 [AeaeCec2]”, the FIC was found to be 0.50 in data set [1] (setting [4]); 0.49 in data set [1] (setting [6]); 0.53 in data set [1] (setting [9]); 0.50 in data set [1] (setting [7]); 0.47 in data set [1] (setting [8]).
In the case of “RAKFGKKLEKVGKNVFNAAKKALPVVAGYKAL-NH2 [AeaeCec5(2W→2A)]”, the FIC in data set [1] (setting [4]) is reported as 0.61; in data set [1] (setting [5]), 0.57; in data set [1] (setting [6]), 0.54; in data set [1] (setting [9]), 0.56.

These data come from publication PMC6092832, “Anti-inflammatory activities of Aedes aegypti cecropins and their protection against murine endotoxin shock” (Parasites & Vectors, 2018).
